Each structure is given as a SMILES string.

Results on ten molecules are retold here after US11384063B2, “Modulators of estrogen receptor proteolysis and associated methods of use” (Arvinas Operations, Inc., priority 2017, dated 2022).

Assay [1] concerns the target T1, ERα (Homo sapiens, UniProt P03372).
T1 sequence (P03372 1-595): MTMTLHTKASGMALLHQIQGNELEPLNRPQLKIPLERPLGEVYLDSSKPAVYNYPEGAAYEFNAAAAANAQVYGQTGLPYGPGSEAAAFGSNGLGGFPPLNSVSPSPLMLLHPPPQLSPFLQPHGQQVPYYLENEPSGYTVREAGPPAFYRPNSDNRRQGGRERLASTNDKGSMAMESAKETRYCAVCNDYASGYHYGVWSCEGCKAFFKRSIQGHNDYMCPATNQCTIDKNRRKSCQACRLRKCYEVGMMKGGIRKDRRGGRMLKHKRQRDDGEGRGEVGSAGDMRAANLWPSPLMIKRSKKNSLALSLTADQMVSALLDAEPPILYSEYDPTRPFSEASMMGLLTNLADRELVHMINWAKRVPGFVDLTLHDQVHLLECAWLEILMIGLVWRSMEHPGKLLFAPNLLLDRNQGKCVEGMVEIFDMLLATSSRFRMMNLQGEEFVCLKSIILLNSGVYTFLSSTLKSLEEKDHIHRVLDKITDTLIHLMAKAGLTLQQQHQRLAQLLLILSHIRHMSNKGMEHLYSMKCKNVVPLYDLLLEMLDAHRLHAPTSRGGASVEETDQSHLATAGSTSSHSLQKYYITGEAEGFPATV
Nature of the assay: Estrogen receptor-alpha (ERα) degradation assay in MCF-7 cells using western blot. The assay is classed as cell-based. The arrangement: assessed for their activity in degrading ERα in MCF-7 cells via western blot; endogenous in cells; host or cells: MCF7 cells. The conditions noted are these: ER-alpha degradation, MCF7 cells, 3 days of incubation. As to the method: Compounds prepared in this application were also analyzed for the degradation of ERα in MCF7 and T47D cells.
Estrogen Receptor-Alpha (ERα) Degradation Assay in MCF-7 Cells Using Western Blot Method for Table 4.
The exemplary novel ERα degraders were assessed for their activity in degrading ERα in MCF-7 cells via western blot. The assay was carried out in the presence of 10% fetal bovine serum (FBS) or high percentage of human or mouse serum.
MCF7 cells were grown in DMEM/F12 with 10% fetal bovine serum and seeded at 24,000 cells per well in 100 μl into 96-well clear tissue culture plates. The following day, the cells were treated with PROTACs in a […] concentration curve with 100 nM being the top concentration and serial dilutions to make the other concentrations (30 nM, 10 nM, 3 nM, 1 nM, and 0.3 nM). At all concentrations, 0.01% DMSO is the final concentration in the well. The following day, the plates are aspirated, washed with 50 μl of cold PBS. The cells are lysed with 50 μl/well 4° C. Cell Lysis Buffer (Catalog #9803; Cell Signaling Technology, Danvers, Mass.) (20 mM Tris-HCL (pH 7.5), 150 mM NaCl, 1 mM […], 1 mM EGTA, 1% Triton, 2.5 mM sodium pyrophosphate, 1 mM B-glycerophosphate, 1 mM sodium vanadate, 1 ug/ml leupeptin). Lysates were clarified at 16,000×g for 10 minutes, and 2 μg of protein was subjected to SDS-PAGE analysis and followed by immunoblotting according to standard protocols. The antibodies used were ERα (Cell Signaling Technologies Catalog #8644), and Tubulin (Sigma Catalog #T9026; St. Louis, Mo.). Detection reagents were Clarity Western ECL substrate (Bio-Rad Catalog #170-5060; Hercules, Calif.).
Alternatively, MCF7 cells were grown in DMEM/F12 with 10% fetal bovine serum and seeded at 24,000 cells per well in 500 μl in 24-well clear tissue culture plates. The following day, the cells were treated with PROTACs in a 5-point concentration curve (100 nM, 33 nM, 11 nM, 3.7 nM, and 1.2 nM) in the presence of 0.01% DMSO. After 72 hours, the wells are aspirated and washed with 500 μl of PBS. The cells are lysed with 100 μl/well 4° C. Cell Lysis Buffer (Catalog #9803; Cell Signaling Technology, Danvers, M A) (20 mM Tris-HCL (pH 7.5), 150 mM NaCl, 1 mM Na2EDTA, 1 mM EGTA, 1% Triton, 2.5 mM sodium pyrophosphate, 1 mM B-glycerophosphate, 1 mM sodium vanadate, 1 ug/ml leupeptin). Lysates were clarified at 16,000×g for 10 minutes, and 2 μg of protein was subjected to SDS-PAGE analysis and followed by immunoblotting according to standard protocols. The antibodies used were ER(X (Cell Signaling Technologies Catalog #8644), and Tubulin (Sigma Catalog #T9026; St. Louis, Mo.). Detection reagents were Clarity Western ECL substrate (Bio-Rad Catalog #170-5060; Hercules, Calif.).
For orientation: Immunoblotting shows a protein as a band on a membrane.

Assay [2] addresses T1, ERα. Nature of the assay: ERE luciferase reporter gene assay in T47D-KBluc cells (target engagement). The conditions noted are these: 10% FBS, 24 hours, Table 2 VHL centric PROTACs, read-out: IC50. The arrangement: T47D human breast cancer cells stably transfected with estrogen responsive element/promoter/luciferase reporter gene; host or cells: T47D-KBluc cells. The assay is classed as cell-based. The essentials: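 T47D-KBluc breast cancer cells, which carry a stable ERE-luciferase reporter, were grown in RPMI with 10% FBS (about 10 pM estrogen) and exposed to PROTACs for 24 h. The 12-point, 3-fold series ran from 300 nM to 2 pM. Luciferase was read after lysis, and IC50 was fitted from duplicates.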
In general terms: A reporter such as luciferase makes a cellular process visible.

As a reminder, the DC50 is the midpoint of the concentration-degradation curve. Usually Dmax stands for the largest share of the target that was removed. A low value points to a partial loss of target. In general, IC50 refers to the point on the concentration scale where inhibition reaches its midpoint. On ERα [1], `Cc1ncsc1-c1ccc([C@H](C)NC(=O)[C@@H]2C[C@@H](O)CN2C(=O)[C@@H](NC(=O)COCCOCCN(C)CCOc2ccc(Oc3c(-c4ccc(F)cc4)sc4cc(O)ccc34)cc2)C(C)(C)C)cc1` [Compound 128, (2S,4R)-1-[(2S)-2-[1-(4[[2-(4-fluorophenyl)-6-hydroxy-1-benzothiophen-3-yl]oxy]phenyl)-4-methyl-1,7,10-trioxa-4-azadodecan-12-amido]-3,3-dimethylbutanoyl]-4-hydroxy-N-[(1S)-1-[4-(4-methyl-1,3-thiazol-5-yl)phenyl]ethyl]pyrrolidine-2-carboxamide] showed a half-maximal degradation concentration (DC50) of under 1 nM and a Dmax of over 75%. Moreover, the IC50 on ERα [2] came to 0.3 nM.
For `C[C@H](NC(=O)[C@@H]1C[C@@H](O)CN1C(=O)[C@@H](NC(=O)COCCOCCN(C)CCOc1ccc(Oc2c(-c3ccc(F)cc3)sc3cc(O)ccc23)cc1)C(C)(C)C)c1ccc(Cl)cc1` [Compound 129] the same measures were 1 to 10 nM, over 75% and 1.4 nM.
For `Cc1ncsc1-c1ccc(CNC(=O)[C@@H]2C[C@@H](O)CN2C(=O)[C@@H](NC(=O)CCc2cccc(-c3ccn(CCOc4ccc(Oc5c(-c6ccc(F)cc6)sc6cc(O)ccc56)cc4)n3)c2)C(C)(C)C)cc1` [Compound 130, (2S,4R)-1-[(2S)-2-[3-(3-[1-[2-(4-[[2-(4-fluorophenyl)-6-hydroxy-1-benzothiophen-3-yl]oxy]phenoxy)ethyl]-1H-pyrazol-3-yl]phenyl)propanamido]-3,3-dimethylbutanoyl]-4-hydroxy-N-[[4-(4-methyl-1,3-thiazol-5-yl)phenyl]methyl]pyrrolidine-2-carboxamide] the same measures were 1 to 10 nM, over 75% and 3.5 nM.
For `Cc1ncsc1-c1ccc(CNC(=O)[C@@H]2C[C@@H](O)CN2C(=O)[C@@H](NC(=O)COCCCCOc2ccc(-c3ccc(Oc4c(-c5ccc(F)cc5)sc5cc(O)ccc45)cc3)nc2)C(C)(C)C)cc1` [Compound 133, (2S,4R)-1-[(2S)-2-[2-(4-[[6-(4-[[2-(4-fluorophenyl)-6-hydroxy-1-benzothiophen-3-yl]oxy]phenyl)pyridin-3-yl]oxy]butoxy)acetamido]-3,3-dimethylbutanoyl]-4-hydroxy-N-[[4-(4-methyl-1,3-thiazol-5-yl)phenyl]methyl]pyrrolidine-2-carboxamide] the same measures were 1 to 10 nM, over 75% and 3.7 nM.
At ERα [1], `Cc1ncsc1-c1ccc(CNC(=O)[C@@H]2C[C@@H](O)CN2C(=O)[C@@H](NC(=O)COCCOCCn2ccc(-c3ccc(Oc4c(-c5ccc(F)cc5)sc5cc(O)ccc45)cc3)cc2=O)C(C)(C)C)cc1` [Compound 134] yielded a DC50 of 1 to 10 nM and a Dmax of over 75%. Further, the IC50 on ERα [2] worked out at 2.6 nM.
For `Cc1ncsc1-c1ccc(CNC(=O)[C@@H]2C[C@@H](O)CN2C(=O)[C@@H](NC(=O)COCCOCCN2CCC(c3ccc(Oc4c(-c5ccc(F)cc5)sc5cc(O)ccc45)cc3)CC2)C(C)(C)C)cc1` [Compound 135, (2S,4R)-1-[(2S)-2-[2-(2-[2-[4-(4-[[2-(4-fluorophenyl)-6-hydroxy-1-benzothiophen-3-yl]oxy]phenyl)piperidin-1-yl]ethoxy]ethoxy)acetamido]-3,3-dimethylbutanoyl]-4-hydroxy-N-[[4-(4-methyl-1,3-thiazol-5-yl)phenyl]methyl]pyrrolidine-2-carboxamide] the same measures were under 1 nM, over 75% and 0.8 nM.
For `Cc1ncoc1-c1ccc([C@H](C)NC(=O)[C@@H]2C[C@@H](O)CN2C(=O)[C@@H](NC(=O)COCCOCCOCCOc2ccc(Oc3c(-c4ccccc4)sc4cc(O)ccc34)cc2)C(C)(C)C)cc1` [Compound 138, (2S,4R)-1-((S)-2-tert-butyl-14-(4-(6-hydroxy-2-phenylbenzo[b]thiophen-3-yloxy)phenoxy)-4-oxo-6,9,12-trioxa-3-azatetradecane)-4-hydroxy-N-((S)-1-(4-(4-methyloxazol-5-yl)phenyl)ethyl)pyrrolidine-2-carboxamide] the same measures were under 1 nM, over 75% and 0.1 nM.
For `Cc1ncsc1-c1ccc(CNC(=O)[C@@H]2C[C@@H](O)CN2C(=O)[C@@H](NC(=O)COc2cccc(CCN(C)CCOc3ccc(Oc4c(-c5ccc(F)cc5)sc5cc(O)ccc45)cc3)c2)C(C)(C)C)cc1` [Compound 139, (2S,4R)-1-[(2S)-2-[2-[3-(2-[[2-(4-[[2-(4-fluorophenyl)-6-hydroxy-1-benzothiophen-3-yl]oxy]phenoxy)ethyl](methyl)amino]ethyl)phenoxy]acetamido]-3,3-dimethylbutanoyl]-4-hydroxy-N-[[4-(4-methyl-1,3-thiazol-5-yl)phenyl]methyl]pyrrolidine-2-carboxamide] the same measures were under 1 nM, over 75% and 0.6 nM.
At ERα [1], `Cc1ncsc1-c1ccc(CNC(=O)[C@@H]2C[C@@H](O)CN2C(=O)[C@@H](NC(=O)COCCN2CCN(CCOc3ccc(Oc4c(-c5ccc(Br)cc5)sc5cc(O)ccc45)cc3)CC2)C(C)(C)C)cc1` [Compound 140, (2S,4R)-1-[(2S)-2-[2-(2-[4-[2-(4-[[2-(4-bromophenyl)-6-hydroxy-1-benzothiophen-3-yl]oxy]phenoxy)ethyl]piperazin-1-yl]ethoxy)acetamido]-3,3-dimethylbutanoyl]-4-hydroxy-N-[[4-(4-methyl-1,3-thiazol-5-yl)phenyl]methyl]pyrrolidine-2-carboxamide] gave a DC50 of 1 to 10 nM and a maximal degradation (Dmax) of over 75%. For the same molecule, at ERα [2], the IC50 worked out at 11 nM.
For `Cc1ncsc1-c1ccc([C@H](C)NC(=O)[C@@H]2C[C@@H](O)CN2C(=O)[C@@H](NC(=O)Cc2ccc(-c3ccn(CCOc4ccc(Oc5c(-c6ccc(F)cc6)sc6cc(O)ccc56)cc4)n3)cc2)C(C)(C)C)cc1` [Compound 141, (2S,4R)-1-[(2S)-2-[2-(4-[1-[2-(4-[[2-(4-fluorophenyl)-6-hydroxy-1-benzothiophen-3-yl]oxy]phenoxy)ethyl]-1H-pyrazol-3-yl]phenyl)acetamido]-3,3-dimethylbutanoyl]-4-hydroxy-N-[(1S)-1-[4-(4-methyl-1,3-thiazol-5-yl)phenyl]ethyl]pyrrolidine-2-carboxamide] the same measures were 1 to 10 nM, over 75% and 1.5 nM.
